Experiment: xn = mol fraction of the nth substance listed

CCOC(=O)CC + CCCCCCC
viscosity [mPa·s], 101.3 kPa
Details	308.15 K	318.15 K
x1 = 0.0514	0.356	0.325
x1 = 0.0967	0.36	0.329
x1 = 0.2165	0.369	0.341
x1 = 0.3027	0.376	0.35
x1 = 0.4024	0.386	0.36
x1 = 0.5033	0.396	0.372
x1 = 0.588	0.406	0.383
x1 = 0.7003	0.421	0.397
x1 = 0.7994	0.435	0.408
x1 = 0.9003	0.45	0.421
x1 = 0.9484	0.458	0.428

C=CC(=O)OCCCC + CC#N
viscosity [mPa·s], 100 kPa
Details	293.15 K	298.15 K	303.15 K	308.15 K	313.15 K	318.15 K
x2 = 0.061	0.8625	0.8036	0.7492	0.6997	0.6541	0.611
x2 = 0.1168	0.8292	0.7725	0.7202	0.6725	0.6285	0.587
x2 = 0.1832	0.7901	0.7361	0.6864	0.641	0.5992	0.5596
x2 = 0.2571	0.7473	0.6964	0.6497	0.607	0.5677	0.5304
x2 = 0.3094	0.7174	0.6687	0.6241	0.5834	0.5459	0.5103
x2 = 0.3825	0.6761	0.6306	0.589	0.551	0.516	0.4829
x2 = 0.4563	0.6351	0.5928	0.5542	0.519	0.4866	0.4558
x2 = 0.5282	0.5958	0.5566	0.521	0.4885	0.4585	0.4301
x2 = 0.5779	0.569	0.532	0.4985	0.4678	0.4395	0.4126
x2 = 0.6483	0.5319	0.4979	0.4672	0.4391	0.4132	0.3886
x2 = 0.7299	0.49	0.4596	0.4322	0.4071	0.384	0.362
x2 = 0.8143	0.4484	0.4216	0.3977	0.3758	0.3556	0.3364
x2 = 0.9182	0.3998	0.3778	0.3584	0.3405	0.3241	0.3086

CCCCCCCCCCCCc1ccccc1 + CCCCCCCCCCCCCCCC
viscosity [mPa·s], 102 kPa
Details	x1 = 0.09264	x1 = 0.1868	x1 = 0.2826	x1 = 0.3803	x1 = 0.4789	x1 = 0.5793	x1 = 0.6819	x1 = 0.786	x1 = 0.892
293.15 K	3.55	3.67	3.82	3.99	4.16	4.36	4.59	4.85	5.14
303.15 K	2.81	2.9	3.01	3.13	3.26	3.41	3.58	3.76	3.97
313.15 K	2.27	2.35	2.43	2.52	2.63	2.74	2.86	3	3.16
323.15 K	1.88	1.94	2.01	2.08	2.16	2.25	2.34	2.45	2.57

CCCCCOC(C)=O + CC(=O)c1ccccc1
298.15 K, 101 kPa
Details	viscosity [mPa·s]
x2 = 0.0465	0.802
x2 = 0.0891	0.8174

CC(C)CO + CN1CCCC1=O
298.15 K, 101 kPa
Details	viscosity [mPa·s]
x2 = 0.0577	2.895
x2 = 0.1202	2.548
x2 = 0.1587	2.399
x2 = 0.2004	2.276
x2 = 0.2421	2.18
x2 = 0.3117	2.053
x2 = 0.368	1.982
x2 = 0.4264	1.931
x2 = 0.4568	1.896
x2 = 0.5217	1.854
x2 = 0.5616	1.83
x2 = 0.6113	1.82
x2 = 0.6662	1.796
x2 = 0.711	1.776
x2 = 0.7618	1.752
x2 = 0.8039	1.747
x2 = 0.8557	1.717
x2 = 0.8982	1.704
x2 = 0.9723	1.677

O=C1OCCO1 + COC(=O)OC
viscosity [mPa·s], 101.3 kPa
Details	x2 = 0.0802	x2 = 0.166	x2 = 0.2441	x2 = 0.3467	x2 = 0.4421	x2 = 0.5442	x2 = 0.6512	x2 = 0.761	x2 = 0.8513
298.15 K	2.043	1.83	1.656	1.452	1.285	1.127	0.983	0.854	0.761
313.15 K	1.688	1.506	1.357	1.184	1.042	0.91	0.789	0.682	0.604

Cc1ccccc1O + CCCC(=O)O
viscosity [mPa·s], 101 kPa
Details	x2 = 0.1104	x2 = 0.2183	x2 = 0.3237	x2 = 0.4268	x2 = 0.5276	x2 = 0.6262	x2 = 0.7227	x2 = 0.8171	x2 = 0.9095
298.15 K	6.565	5.731	4.976	4.317	3.725	3.167	2.698	2.265	1.862
308.15 K	4.973	4.431	3.973	3.534	3.113	2.687	2.294	1.936	1.575
318.15 K	3.375	3.191	2.968	2.723	2.463	2.194	1.914	1.62	1.307

C1CCC2=[NH+]CCCN2CC1.c1nc[n-]n1 + CS(C)=O
303.15 K, 100 kPa
Details	viscosity [mPa·s]
x1 = 0.1001	3.86
x1 = 0.2	7.19
x1 = 0.2999	12.29
x1 = 0.4003	22.17
x1 = 0.4989	39.73
x1 = 0.6002	77.3
x1 = 0.7008	152.3
x1 = 0.7993	309.9
x1 = 0.9002	586.4
